Source: paper PMC6661766, “Antimicrobial, antioxidant and cytotoxic evaluation of diazenyl chalcones along with insights to mechanism of interaction by molecular docking studies” (BMC Chemistry, 2019)
Values after ≈ are worked out from the molar mass of the structure shown. Values joined by “and” are separate entries in the source; they are usually repeats but may differ in a detail not shown here. Equal entries are not always repeated.

Columns and labels:
tested bacterial strains = experiment: Antimicrobial serial tube dilution, ranges over several bacterial strains; type: cell-based; conditions: over tested bacterial strains
Method: (§1) The synthesized diazenyl chalcones (C18 to C27) and controls (dyes A and E, and chalcone) were assessed for their antimicrobial activity by estimation of MIC and MBC/MFC values. […] The stock solutions of the test compounds and standard drugs having a concentration of 1000 µg ml^−1 were prepared by dissolving the used compounds in DMSO. The nutrient broth/Sabouraud dextrose broth was used for the serial dilution of the test compounds and referenced drugs for bacterial and fungal cultures, respectively. […] The size of the final inoculum in each test tube was taken as 5 × 10^5 CFU ml^−1. The incubation of the test and standard compounds of varying concentrations was done for 24 h at 37 ± 2 °C (bacterial culture) and for 48 h at 37 ± 2 °C (C. albicans) and for 7 d at 25 ± 2 °C (A. fumigatus). The diazenyl chalcones (C18–C27), were further evaluated for their bactericidal/fungicidal activity by estimation of MBC/MFC values. […] For proper mixing of culture media, the plates were shaken gently followed by incubation at the predefined temperature and time as stated earlier, followed by the visual inspection of the plates for signs of microbial growth.

B. cereus = experiment: Antimicrobial serial tube dilution, MIC and MBC; type: cell-based, Bacillus cereus MTCC 1305; conditions: Bacillus cereus; for MIC: 24 h, read-out: B. cereus MIC; for MBC: read-out: B. cereus MBC
Method: as §1

[1] = tested on: A549 human lung cancer cell line; experiment: MTT cytotoxicity assay, A549; type: cell-based; conditions: for IC50: Homo sapiens, A549, MTT, 48 h
Method: (§2) The cell lines employed in the investigation were purchased from the National Centre for Cell Sciences (NCCS), Pune, India. The cell lines were cultured in DMEM fortified with 10% FBS, L-glutamine, sodium bicarbonate, and solution of antibiotics (streptomycin 100 μg ml^−1 + penicillin-100 U ml^−1). The culture of cell lines was stored under 5% CO2 incubation at 37 °C.
(§3) The compounds showing maximum activity (antimicrobial and antioxidant potential) were screened for cytotoxicity against A549 and HEK cell lines using MTT assay. Initially, 96-well microculture plate was seeded with 1 × 10^4 cells in 100 µl/well DMEM/MEM, supplemented with 10% FBS followed by incubation at a temperature of 37 °C for a period of 24 h under 5% CO2 atmosphere. After that, the test compounds and camptothecin were added to the cells to achieve a concentration of 10, 25, 50 and 100 µg. MTT reagent (10 µl) of concentration of 5 mg ml^−1 added to all the wells after the duration of 48 h. The plate was incubated further for 4 h followed by careful removal of supernatant from each well. To dissolve the formazan crystals, 100 µl of DMSO was added, and the ELISA reader was used to check the absorbance at 570 nm wavelength. In order to calculate the IC50 concentration, the following equation, i.e. A = Bx + C, was used. In this case, A = 50, while the values B and C values were obtained from the survival curve plot. This study was carried out in duplicate.

B. subtilis = experiment: Antimicrobial serial tube dilution, MIC and MBC; type: cell-based, Bacillus subtilis MTCC 2063; conditions: Bacillus subtilis; for MIC: 24 h, read-out: B. subtilis MIC; for MBC: read-out: B. subtilis MBC
Method: as §1

[2] = tested on: HEK human embryonic kidney cells; experiment: MTT cytotoxicity assay, HEK; type: cell-based; conditions: 48 h
Method: as §2, §3

S. aureus = experiment: Antimicrobial serial tube dilution, MIC and MBC; type: cell-based, Staphylococcus aureus MTCC 2901; conditions: Staphylococcus aureus; for MIC: 24 h, read-out: S. aureus MIC; for MBC: read-out: S. aureus MBC
Method: as §1

[3] = DPPH scavenging antioxidant assay; conditions: for log IC50 DPPH: Fig. 1
Method: The derivatives (C18–C27) were assessed for their antioxidant potential in the presence of the stable free radical DPPH using ascorbic acid as the standard compound [36, 37]. […] The total volume of 200 µl was used in each well for each concentration of the test and standard drug containing 0.004 µg DPPH. The assay was performed in triplicate at all concentrations of each sample and standard compound. DPPH solutions in methanol at the same concentration without test drugs were used as the control. Each concentration of the sample and standard has a different blank. To minimize evaporation, the plate was covered with the lid and wrapped in aluminium foil and kept in the dark place in order to protect the DPPH radical from degradation by light and left for 30 min. After 30 min of incubation, the plate was kept in ELISA reader to measure the absorbance values at 517 nm. The experiment was performed in triplicate. The antioxidant activity of each sample was then calculated as per cent inhibition of DPPH according to the following equation: %decolourationofDPPH=ControlAbs-SampleAbs×100/ControlAbs

C. albicans = experiment: Antimicrobial serial tube dilution, MIC and MFC; type: cell-based, Candida albicans MTCC 227; conditions: Candida albicans; for MIC: 48 h, read-out: C. albicans MIC; for MFC: read-out: C. albicans MFC
Method: as §1

A. fumigatus = experiment: Antimicrobial serial tube dilution, MIC and MFC; type: cell-based, Aspergillus fumigatus MTCC 2584; conditions: Aspergillus fumigatus; for MIC: 168 h, read-out: A. fumigatus MIC; for MFC: read-out: A. fumigatus MFC
Method: as §1

E. coli = experiment: Antimicrobial serial tube dilution, MIC and MBC; type: cell-based, Escherichia coli MTCC 1652; conditions: for MIC / MBC: Escherichia coli; for MIC: 24 h, read-out: E. coli MIC, 24 h at 37 ± 2 °C; for MBC: read-out: E. coli MBC; for E. coli MIC: 24 h at 37 ± 2 °C
Method: as §1

S. typhi = experiment: Antimicrobial serial tube dilution, MIC and MBC; type: cell-based, Salmonella typhi MTCC 3216; conditions: Salmonella enterica, TYPHI; for MIC: 24 h, read-out: S. typhi MIC; for MBC: read-out: S. typhi MBC
Method: as §1

## O=C(/C=C\c1cc(Br)ccc1O)c1ccc(N=Nc2ccc([N+](=O)[O-])cc2Cl)c(O)c1 [Compound C-22, (2Z)-3-(5-Bromo-2-hydroxyphenyl)-1-(4-((2-chloro-4-nitrophenyl)diazenyl)-3-hydroxyphenyl) prop-2-en-1-one]
Tested bacterial strains
  MBC range: 3.90 to 7.81 µg/mL
  MIC range: 1.95 to 3.90 µg/mL
B. cereus
  MIC: 3.9 µg/mL (≈ 7.76 µM)
  MBC: 3.9 µg/mL (≈ 7.76 µM)
[1]
  IC50: 156.4 ± 1.23 µg/mL (≈ 311 µM)
B. subtilis
  MIC: 1.95 µg/mL (≈ 3.88 µM)
  MBC: 7.81 µg/mL (≈ 15.5 µM)
other
  melting point: 160 to 162 °C
[2]
  IC50: 296.4 ± 2.32 µg/mL (≈ 590 µM)
S. aureus
  MIC: 3.9 µg/mL (≈ 7.76 µM)
  MBC: 31.2 µg/mL (≈ 62.2 µM)
[3]
  IC50 DPPH: > 100 µg/mL
[3]; 1.56 µg ml^−1
  % inhibition of DPPH: 8.25%
[3]; 3.12 µg ml^−1
  % inhibition of DPPH: 9.26%
[3]; 6.25 µg ml^−1
  % inhibition of DPPH: 10.25%
[3]; 12.5 µg ml^−1
  % inhibition of DPPH: 11.79%
[3]; 25 µg ml^−1
  % inhibition of DPPH: 14.15%
[3]; 50 µg ml^−1
  % inhibition of DPPH: 16.34%
[3]; 100 µg ml^−1
  % inhibition of DPPH: 23.27%
C. albicans
  MIC: 31.2 µg/mL (≈ 62.2 µM)
  MFC: 31.2 µg/mL (≈ 62.2 µM)
A. fumigatus
  MIC: 62.5 µg/mL (≈ 124 µM)
  MFC: 125 µg/mL (≈ 249 µM)
E. coli
  MIC: 1.95 µg/mL (≈ 3.88 µM)
  MBC: 7.81 µg/mL (≈ 15.5 µM)
S. typhi
  MIC: 3.9 µg/mL (≈ 7.76 µM)
  MBC: 7.81 µg/mL (≈ 15.5 µM)

## O=Cc1ccc(/C=C\C(=O)c2ccc(N=Nc3c(O)cccc3O)cc2)cc1 [Compound C-23, 4-((1Z)-3-(4-((2,6-Dihydroxyphenyl)diazenyl)phenyl)-3-oxoprop-1-en-1-yl)benzaldehyde]
B. cereus
  MIC: 62.5 µg/mL (≈ 168 µM)
  MBC: 62.5 µg/mL (≈ 168 µM)
[1]
  IC50: 171 ± 2.46 µg/mL (≈ 460 µM)
B. subtilis
  MIC: 62.5 µg/mL (≈ 168 µM)
  MBC: 62.5 µg/mL (≈ 168 µM)
other
  melting point: 182 to 184 °C
[2]
  IC50: 190.1 ± 1.56 µg/mL (≈ 511 µM)
S. aureus
  MIC: 125 µg/mL (≈ 336 µM)
  MBC: 125 µg/mL (≈ 336 µM)
[3]
  IC50 DPPH: 17.82 µg/mL (≈ 47.9 µM)
  log IC50 DPPH: 1.251
[3]; 1.56 µg ml^−1
  % inhibition of DPPH: 19.03%
[3]; 3.12 µg ml^−1
  % inhibition of DPPH: 25.53%
[3]; 6.25 µg ml^−1
  % inhibition of DPPH: 35.86%
[3]; 12.5 µg ml^−1
  % inhibition of DPPH: 50.45%
[3]; 25 µg ml^−1
  % inhibition of DPPH: 70.53%
[3]; 50 µg ml^−1
  % inhibition of DPPH: 83.17%
[3]; 100 µg ml^−1
  % inhibition of DPPH: 95.68%
C. albicans
  MIC: 125 µg/mL (≈ 336 µM)
  MFC: 125 µg/mL (≈ 336 µM)
A. fumigatus
  MIC: 62.5 µg/mL (≈ 168 µM)
  MFC: 125 µg/mL (≈ 336 µM)
E. coli
  E. coli MIC: 15.62 µg/mL
  MIC: 7.81 to 15.6 µg/mL (≈ 21 to 41.9 µM)
  MBC: 15.6 µg/mL (≈ 41.9 µM)
S. typhi
  MIC: 31.2 µg/mL (≈ 83.9 µM)
  MBC: 62.5 µg/mL (≈ 168 µM)

## O=Cc1ccc(/C=C\C(=O)c2cccc(N=Nc3cccc(Cl)c3Cl)c2O)cc1 [Compound C-25, 4-((1Z)-3-(3-((2,3-Dichlorophenyl)diazenyl)-2-hydroxyphenyl)-3-oxoprop-1-en-1-yl)benzaldehyde]
B. cereus
  MIC: 125 µg/mL (≈ 294 µM)
  MBC: 125 µg/mL (≈ 294 µM)
[1]; C-25 at 50 and 25 µg ml^−1, Fig. 2
  Morphological changes in A549 cell line: reduced the number and clumping of A549 cells to a significant extent
[1]
  IC50: 18 ± 1.34 µg/mL (≈ 42.3 µM)
[1]; compared with camptothecin
  Cytotoxicity against A549 cell line in words: comparable cytotoxicity to camptothecin
B. subtilis
  MIC: 15.6 µg/mL (≈ 36.7 µM)
  MBC: 62.5 µg/mL (≈ 147 µM)
other
  melting point: 96 to 98 °C
[2]
  IC50: 270 ± 2.82 µg/mL (≈ 635 µM)
S. aureus
  MIC: 62.5 µg/mL (≈ 147 µM)
  MBC: 62.5 µg/mL (≈ 147 µM)
[3]
  IC50 DPPH: > 100 µg/mL
[3]; 1.56 µg ml^−1
  % inhibition of DPPH: 9.71%
[3]; 3.12 µg ml^−1
  % inhibition of DPPH: 10.38%
[3]; 6.25 µg ml^−1
  % inhibition of DPPH: 11.36%
[3]; 12.5 µg ml^−1
  % inhibition of DPPH: 13.56%
[3]; 25 µg ml^−1
  % inhibition of DPPH: 14.91%
[3]; 50 µg ml^−1
  % inhibition of DPPH: 15.67%
[3]; 100 µg ml^−1
  % inhibition of DPPH: 20.34%
C. albicans
  MIC: 31.2 µg/mL (≈ 73.5 µM)
  MFC: 62.5 µg/mL (≈ 147 µM)
A. fumigatus
  MIC: 62.5 µg/mL (≈ 147 µM)
  MFC: 62.5 µg/mL (≈ 147 µM)
E. coli
  MIC: 62.5 µg/mL (≈ 147 µM)
  MBC: 125 µg/mL (≈ 294 µM)
S. typhi
  MIC: 125 µg/mL (≈ 294 µM)
  MBC: 125 µg/mL (≈ 294 µM)

## COc1ccccc1/C=C\C(=O)c1ccc(N=Nc2c(O)cccc2O)cc1 [Compound C-27, (2Z)-1-(4-((2,6-Dihydroxyphenyl)diazenyl)phenyl)-3-(2-methoxyphenyl)prop-2-en-1-one]
B. cereus
  MIC: 125 µg/mL (≈ 334 µM)
  MBC: 125 µg/mL (≈ 334 µM)
[1]
  IC50: 124 ± 2.56 µg/mL (≈ 330 µM)
B. subtilis
  MIC: 15.6 µg/mL (≈ 41.7 µM)
  MBC: 31.2 µg/mL (≈ 83.5 µM)
other
  melting point: 320 to 322 °C
[2]
  IC50: 330.6 ± 2.9 µg/mL (≈ 883 µM)
S. aureus
  MIC: 62.5 µg/mL (≈ 167 µM)
  MBC: 62.5 µg/mL (≈ 167 µM)
[3]
  IC50 DPPH: 7.112 µg/mL and 7.12 µg/mL
  log IC50 DPPH: 0.8520
[3]; 1.56 µg ml^−1
  % inhibition of DPPH: 26.13%
[3]; 3.12 µg ml^−1
  % inhibition of DPPH: 34.18%
[3]; 6.25 µg ml^−1
  % inhibition of DPPH: 54.67%
[3]; 12.5 µg ml^−1
  % inhibition of DPPH: 82.21%
[3]; 25 µg ml^−1
  % inhibition of DPPH: 93.45%
[3]; 50 µg ml^−1
  % inhibition of DPPH: 95.71%
[3]; 100 µg ml^−1
  % inhibition of DPPH: 96.62%
C. albicans
  MIC: 62.5 µg/mL (≈ 167 µM)
  MFC: 62.5 µg/mL (≈ 167 µM)
A. fumigatus
  MIC: 125 µg/mL (≈ 334 µM)
  MFC: 125 µg/mL (≈ 334 µM)
E. coli
  E. coli MIC: 7.81 µg/mL
  MIC: 7.81 to 15.6 µg/mL (≈ 20.9 to 41.7 µM)
  MBC: 15.6 µg/mL (≈ 41.7 µM)
S. typhi
  MIC: 62.5 µg/mL (≈ 167 µM)
  MBC: 62.5 µg/mL (≈ 167 µM)
